This note sets out measurements from patent US7709636B2, “Pyrazole sulfonylurea compound and herbicide” (Nissan Chemical Industries, Ltd., priority 2004, dated 2010).

In data set [1] the test system is Echinochloa crus-galli. Kind of data set: Herbicidal effect test in submerged condition by treatment during weed-growth stage (1). It counts as in vivo. Particulars: 0.64 g/a, treated at 1st to 2nd leaf stage, 3 weeks after treatment. How it is done:
(§1) Herbicidal Effect Test in Submerged Condition by Treatment During Weed-Growth Stage (1) After alluvial soil was placed in a styrol cup of 1/30000 are, water was poured therein and mixed, and adjusted to a submerged condition of water depth 4 cm. After seeds of Echinochloa crus-galli, Scirpus juncoides and Monochoria vaginalis were sown in the cup, the plants were grown by putting the cup in a green house at 25 to 30° C. When Echinochloa crus-galli, Scirpus juncoides and Monochoria vaginalis reached 1st to 2nd leaf stage, the wettable powder of the present invention prepared according to Formulation Example 1 was diluted with water so as to give a predetermined formulation amount, and the surface of the water was treated with the diluted wettable powder. The herbicidal effect for each plant was investigated 3 weeks after treatment with the herbicide according to the criteria indicated in Test Example 1.

The subject of the next data set is Monochoria vaginalis. The data set is described as above. Particulars: 0.64 g/a, treated at 1st to 2nd leaf stage, 3 weeks after treatment. Type of data set: in vivo. As to the method: as §1
A further data set has as its system Scirpus juncoides. Described as above. Type of data set: in vivo. Particulars: 0.64 g/a, treated at 1st to 2nd leaf stage, 3 weeks after treatment. How it is done:
as §1

In the next data set the test system is Abutilon avicennae. Kind of data set: Herbicidal effect test by soil treatment. Type of data set: in vivo. Particulars: 1.6 g/a, 3 weeks after treatment. An excerpt: (§2) Herbicidal Effect Test by Soil Treatment
(§3) Sterilized diluvial soil was placed in a plastic box having a size of length 21 cm, width 13 cm and depth 7 cm, seeds Echinochloa crus-galli, Digitaria adscendes, Setaria viridis, Avena fatua, Black-grass, Abutilon avicennae, Ambrosia elatior, Amaranthus retroflexus, Chenopodium album, Polygonum blumei, Stellaria media, Zea mays (corn), Glycine max (soybean), Oryza sativa (rice), Triticum aestivum (wheat) and Beta vulgaris (beat) were sown interspatially, covered with about 1.5 cm of soil, and then the wettable powder of the present invention prepared according to Formulation Example 1 was diluted with water so as to give a predetermined formulation amount, and the surface of the soil was uniformly treated with the diluted wettable powder by use of a small-sized spray. The herbicidal effect for each plant was investigated 3 weeks after treatment with the herbicide according to the criteria indicated in Test Example 1.

The subject of the next data set is Amaranthus retroflexus. Kind of data set: Herbicidal effect test by soil treatment. Type of data set: in vivo. The note with it: 1.6 g/a, 3 weeks after treatment.
Source text: as §2, §3

A further data set relates to Ambrosia elatior. Kind of data set: Herbicidal effect test by soil treatment. Type of data set: in vivo. The note with it: 1.6 g/a, 3 weeks after treatment.
Source text: as §2, §3

The next data set concerns Avena fatua. Kind of data set: Herbicidal effect test by soil treatment. Type of data set: in vivo. Particulars: 1.6 g/a, 3 weeks after treatment.
Source text: as §2, §3

The next data set deals with Beta vulgaris (beet). Kind of data set: Herbicidal effect test by soil treatment. Type of data set: in vivo. The note with it: 1.6 g/a, 3 weeks after treatment.
Source text: as §2, §3

The next data set relates to Black-grass. Kind of data set: Herbicidal effect test by soil treatment. It counts as in vivo. The note with it: 1.6 g/a, 3 weeks after treatment.
Source text: as §2, §3

The next data set concerns Chenopodium album. Kind of data set: Herbicidal effect test by soil treatment. The note with it: 1.6 g/a, 3 weeks after treatment. It counts as in vivo.
Source text: as §2, §3

The subject of the next data set is Digitaria adscendes. Kind of data set: Herbicidal effect test by soil treatment. It counts as in vivo. Particulars: 1.6 g/a, 3 weeks after treatment.
Source text: as §2, §3

In data set [2] the test system is Echinochloa crus-galli. Kind of data set: Herbicidal effect test by soil treatment. It counts as in vivo. The note with it: 1.6 g/a, 3 weeks after treatment.
Source text: as §2, §3

The next data set concerns Polygonum blumei. Kind of data set: Herbicidal effect test by soil treatment. It counts as in vivo. The note with it: 1.6 g/a, 3 weeks after treatment.
Source text: as §2, §3

Another data set deals with Setaria viridis. Kind of data set: Herbicidal effect test by soil treatment. The note with it: 1.6 g/a, 3 weeks after treatment. Type of data set: in vivo.
Source text: as §2, §3

Another data set has as its system Stellaria media. Kind of data set: Herbicidal effect test by soil treatment. It counts as in vivo. The note with it: 1.6 g/a, 3 weeks after treatment.
Source text: as §2, §3

The test system of data set [3] is Triticum aestivum (wheat). Kind of data set: Herbicidal effect test by soil treatment. Type of data set: in vivo. Particulars: 1.6 g/a, 3 weeks after treatment.
Source text: as §2, §3

A further data set concerns corn (Zea mays). Kind of data set: Herbicidal effect test by soil treatment. It counts as in vivo. Particulars: 1.6 g/a, 3 weeks after treatment.
Source text: as §2, §3

In the next data set the test system is soybean (Glycine max). Kind of data set: Herbicidal effect test by soil treatment. Type of data set: in vivo. Particulars: 1.6 g/a, 3 weeks after treatment.
Source text: as §2, §3

Another data set concerns direct sown rice. Kind of data set: Herbicidal effect test by soil treatment. It counts as in vivo, Oryza sativa. Particulars: 1.6 g/a, 3 weeks after treatment.
Source text: as §2, §3

On to `COc1cc(OC)nc(NC(=O)NS(=O)(=O)c2c(C3=NOC(C)CO3)c(C)nn2C)n1` (stereo not shown) [Compound 9, N-((4,6-dimethoxypyrimidin-2-yl)aminocarbonyl)-1,3-dimethyl-4-(6-methyl-5H,6H-1,4,2-dioxadin-3-yl)pyrazole-5-sulfonamide], for which the “herbicidal effect, A: Echinochloa crus-galli” value in the data set on Echinochloa crus-galli [1] is 5 (Herbicidal rate 90% or more (almost complete death)); in the data set on Echinochloa crus-galli [2] it was 4 (Herbicidal rate 70% or more and less than 90%). Further, the “herbicidal effect, C: Monochoria vaginalis” value in the data set with Monochoria vaginalis is 5 (Herbicidal rate 90% or more (almost complete death)). In the data set with Scirpus juncoides, the “herbicidal effect, B: Scirpus juncoides” value was 5 (Herbicidal rate 90% or more (almost complete death)). Besides, in the data set with Abutilon avicennae, the “herbicidal effect, H: Abutilon avicennae” value is 4 (Herbicidal rate 70% or more and less than 90%). In addition, the “herbicidal effect, J: Amaranthus retroflexus” value in the data set with Amaranthus retroflexus is 5 (Herbicidal rate 90% or more (almost complete death)). For the same compound, the “herbicidal effect, I: Ambrosia elatior” value with Ambrosia elatior is 5 (Herbicidal rate 90% or more (almost complete death)). The “herbicidal effect, F: Avena fatua” value in the data set with Avena fatua was 3 (Herbicidal rate 40% or more and less than 70%). In the data set on Beta vulgaris (beet), the “herbicidal effect, f: Beta vulgaris (beet)” value was 5 (Herbicidal rate 90% or more (almost complete death)). Further, the “herbicidal effect, G: Black-grass” value in the data set with Black-grass is on record as 5 (Herbicidal rate 90% or more (almost complete death)). Moreover, the “herbicidal effect, K: Chenopodium album” value in the data set with Chenopodium album is listed as 5 (Herbicidal rate 90% or more (almost complete death)). In the data set on Digitaria adscendes, the “herbicidal effect, D: Digitaria adscendes” value is 4 (Herbicidal rate 70% or more and less than 90%). Moreover, in the data set with Polygonum blumei, the “herbicidal effect, L: Polygonum blumei” value is 5 (Herbicidal rate 90% or more (almost complete death)). Also, the “herbicidal effect, E: Setaria viridis” value with Setaria viridis is 4 (Herbicidal rate 70% or more and less than 90%). Moreover, the “herbicidal effect, M: Stellaria media” value in the data set on Stellaria media is 5 (Herbicidal rate 90% or more (almost complete death)). Besides, in data set [3], the “herbicidal effect, e: Triticum aestivum (wheat)” value is listed as 5 (Herbicidal rate 90% or more (almost complete death)). The “herbicidal effect, b: corn (Zea mays)” value with corn (Zea mays) is on record as 5 (Herbicidal rate 90% or more (almost complete death)). In addition, the “herbicidal effect, c: soybean (Glycine max)” value in the data set with soybean (Glycine max) is recorded as 5 (Herbicidal rate 90% or more (almost complete death)). Moreover, the “herbicidal effect, d: direct sown rice” value with direct sown rice was 5 (Herbicidal rate 90% or more (almost complete death)).
